Results from US20090012019A1, “Methods and Compositions Related to TR4” (priority 2005, published 2009).

Key:
[1] = short acting NO donor, vendor reagent (Alexis); cited from earlier work
TR4 [2] = assay: Stress-induced TR4 expression in wt MEF; format: cell-based, mice; settings: wt MEF treated with cobalt chloride to mimic hypoxia stress
TR4 [3] = settings: C2C12 cells, 250 μM H2O2 for 2 h; mRNA at 4 hr, protein at 8 hr
Procedure: The levels of TR4 mRNA and proteins were measured by Q-PCR and Western blotting analyses.
To dissect potential molecular mechanism by which TR4 is involved in the ROS/DNA damage/DNA repair signal cascades, TR4 expression levels were examined upon exposure to genotoxic stress (such as H2O2).

In the case of Nc1n[n+](-c2ccc(Cl)c(Cl)c2)no1.[Cl-] [GEA 3162, 1,2,3,4-oxatriazolium, 5-amino-3-(3,4-dichlorophenyl)-chloride], the halftime [1] is given as roughly 3 min.
With [Cl][Co][Cl] [cobalt chloride] the TR4 expression (TR4 [2]) was “up-regulated”.
For OO [H2O2, hydrogen peroxide], the “TR4 mRNA and protein expression” value (TR4 [3]) was “increased”.
